Measured values as given in patent publication US7342026B2, “Substituted quinolines for the treatment of protozoa and retrovirus co-infections” (priority 2001, dated 2008).
Read-outs that look alike come from different tables or passages of the source.

Columns and labels:
[1] = test system: amastigotes of Trypanosoma cruzi (Tulahuen strain); assay: Amastigotes of Trypanosoma cruzi in peritoneal macrophages; type: cell-based; details: read-out: T. cruzi (amastigotes) IC50
Method: c) Tests on Amastigotes of Trypanosoma cruzi
Peritoneal macrophages from Balb/c mice are collected, washed in Dulbecco PBS and then distributed in 96-well plates in a proportion of 3×10^4 cells per 100 μl and per well, in RPMI-1640 medium supplemented with 10% FCS and antibiotics.
After 24 hours at 37° C., 10^5 trypomastigotes are added with serial 2-fold dilutions of the various substituted quinolines. The cultures are then incubated at 37° C. for 4 days in a humid atmosphere (5% CO2-95% air). After fixing, and then staining with Giemsa, the antiparasitic activity is assessed by counting the extracellular trypomastigotes and the intracellular amastigotes.

CEM4fx cells = assay: Cytotoxicity with respect to host CEM4fx cells (MTT bioconversion assay); type: cell-based
Method: (§1) Moreover, the cytotoxicity of the quinolines with respect to the host cells is measured by an MTT [3-(4,5-dimethylthiazol-2-yl)-2,5-diphenyltetrazolium bromide]bioconversion assay. All the assays are carried out in triplicate.

[2] = test system: circulating forms of Trypanosoma brucei (S427 strain); assay: microbe, parasite or virus in culture; type: cell-based; details: read-out: T. brucei IC50
Method: d) Tests on the Circulating Forms of Trypanosoma brucei
The circulating forms of Trypanosoma brucei are cultured in MEM medium (minimum essential medium; GIBCO-BRL, No. 072-1100) to which Earle's salts have been added and supplemented with 1 mg/ml of glucose, 2.2 mg/ml of NaHCO3, 10 mM of Hepes, 2 mM of sodium pyruvate, 0.2 mM of 2-mercaptoethanol, 0.1 mM of hypoxanthine and 15% of inactivated horse serum.
The cultures are maintained at 37° C. in 24-well plates in a humid atmosphere (5% CO2-95% air) and the passages are carried out every 2 or 3 days at a density of 10^3 to 10^5 trypomastigotes per ml. The activity of the substituted quinolines is tested in triplicate in 96-well plates in which 10^3 parasites originating from an exponential growth phase are distributed per well, in the presence of the various solutions of substituted quinolines in a final volume of 200 μl. After culturing for 48 hours, the trypanocidal activity is assessed by counting, with a Neubauer cell, the number of live parasites per well.

[3] = test system: amastigotes of Leishmania amazonensis; assay: Amastigotes of Leishmania amazonensis in infected macrophages (leishmanicidal activity); type: cell-based; details: 100% inhibitory concentration, intracellular amastigotes in BALB/c macrophages, 30 hours after addition
Method: The strain of Leishmania amazonensis is maintained by successive passages in “nude” mice (nu/nu). The amastigotes are isolated from the lesions developed on the footpads, and purified according to the method described by Antoine et al. (Parasitology, 1989, 99: 1).
The leishmanicidal activity of the quinolines is determined 30 hours after addition of the solutions of substituted quinolines. It is based on a more or less large, or even complete, decrease, firstly, in the size of the parasitophorous vacuoles and, secondly, in the number of live intracellular amastigotes.

macrophages = assay: Cytotoxicity on macrophages; type: cell-based, BALB/c mice
Method: The macrophages, which will be used as host cells for the leishmania, are obtained after multiplication and differentiation of medullary precursors from BALB/c mice. This culture is prepared in the presence of supernatant from a conditioned line of fibroblasts L-929, and source of “Macrophage Colony Stimulating Factor”. After culturing for 5 days on a hydrophobic support, the adherent macrophages are recovered and then distributed in flat-bottomed 96-well plates for cell culture, in a proportion of 4×10^4 macrophages per well. The macrophages are then infected with purified amastigotes (4 parasites per macrophage) and incubated at 34° C. for 24 hours to allow development of parasitophorous vacuoles and multiplication of parasites. Under these conditions, more than 95% of the macrophages are infected.
The solutions of the substituted quinolines to be tested are prepared in DMSO before being added, at various concentrations, to the infected macrophage cultures.
The results obtained with the substituted quinolines, assigned Nos. 1, 2, 4, 6 to 11, 13 to 20, 23 to 34, 37 and 38 in Table I, are given in Table II below as regards their activity on the amastigotes of Leishmania amazonensis, of Leishmania donovani and of Leishmania infantum, and also their cytotoxicity with respect to the macrophages.

[4] = test system: HIV-1 (molecular clone pLN4-3); assay: microbe, parasite or virus in culture; type: cell-based, human immunodeficiency virus (HIV-1); details: read-out: Antiretroviral activity IC50
From the text: e) Tests on the Replication of HIV-1
CEM4fx cells are infected de novo with the molecular clone pLN4-3 of HIV-1, and simultaneously treated with the substituted quinolines to be tested, dissolved beforehand in DMSO. The virus multiplies for three days, and then the presence of infectious virions is detected in the culture supernatant (RPMI medium) by reinfecting “P4” cells which have a reporter gene which is expressed when they are infected with the virus. The viral load is quantified after culturing for 72 hours, by two methods: estimation of the viral load by infection of HeLa-βgal CD4^+ cells and determination of the amount of viral protein p24 by an ELISA assay.

[5] = Cytotoxicity with respect to host CEM4fx cells (MTT bioconversion assay); type: cell-based; details: human, CEM4fx cells (host cells)
Method: as §1

[6] = test system: Leishmania infantum (MHOM/FR/91/LEM2259V); assay: Balb/c mice infected with visceral leishmaniasis (Leishmania infantum); type: in vivo; details: 10 days, quinolines oral 25 mg/kg/day, Glucantime subcutaneous 100 mg/kg/day
Method: b) Tests Carried on Laboratory Animals Infected with Visceral Leishmaniasis (Leishmania infantum): 1/Laboratory Animals and Parasites
The Balb/c mice were infected with Leishmania infantum parasites at the promastigote stage (reference: MHOM/FR/91/LEM2259V), a strain isolated from a patient carrying AIDS. This strain is maintained in Schneider's drosophila culture medium (Gibco, USA) supplemented with 20% of fetal calf serum. The infectious promastigotes are cultured for 7 days and then counted. Each mouse is then infected intravenously with 0.2 ml of culture medium containing 10^7 promastigotes.
Counting of amastigotes forms in the liver and spleen.
After the treatments have been stopped and the animals sacrificed, the viscera, liver and spleen are weighed and collected in a Petri dish. Each organ is mounted several times on a degreased glass slide which, fixed and stained by the May-Grünwald-Giemsa technique, makes it possible to determine the number of amastigote forms per 500 nucleated cells.
The results are expressed in Table VI.

[7] = test system: amastigotes of Leishmania donovani (MHOM/ET/67/L82); assay: microbe, parasite or virus in culture; type: cell-based; details: amastigotes in Balb/c peritoneal macrophages, 48 hours
From the text: (§2) b) Tests on Amastigotes of Leishmania donovani and Leishmania infantum
(§3) The Leishmania donovani and Leishmania infantum strains are maintained by successive passages in golden hamsters. The amastigotes are isolated from the spleens of the infected hamsters and brought into contact with the purified macrophages.
(§4) Twenty-four hours after intraperitoneal injection of Balb/c mice with a 2% starch solution, the peritoneal macrophages of these mice are collected, washed in Dulbecco PBS and then distributed in Lab-tek® culture chambers, in a proportion of 4×10^4 cells per 100 μl per well in RPMI-1640 medium supplemented with 10% of FCS and antibiotics. After 24 hours at 37° C. in a humid atmosphere (5% CO2), the macrophages are brought into contact with purified amastigotes (3 parasites per macrophage) in a final volume of 200 μl for 4 hours. The medium is then removed in order to eliminate the extracellular parasites, and replaced with 100 μl of fresh medium.
(§5) Twenty-four hours after the beginning of infection, the solutions of substituted quinolines prepared as described in paragraph a) above are added and the leishmanicidal activity is determined after 48 hours by counting the number of parasites still alive in the fixed and Giemsa-stained cells.

[8] = test system: amastigotes of Leishmania infantum (IPZ229/1/89); assay: microbe, parasite or virus in culture; type: cell-based; details: amastigotes in Balb/c peritoneal macrophages, 48 hours
From the text: as §2, §3, §4, §5

[9] = Balb/c peritoneal macrophages, 4 days
[10] = HIV-1 replication in CEM4fx cells, 72 hours

Row | Compound | IC50 [1, 9] [µM] | IC50 (CEM4fx cells) [µM] | IC50 ([2]; circulating forms, culturing for 48 hours) [µM] | L. amazonensis IC100 [3] [µg/mL] | Cytotoxicity on macrophages (macrophages; macrophages from BALB/c mice) [µg/mL] | IC50 [4, 10] [µM] | IC50 ([1]; Trypanosoma cruzi, TULAHUEN, Peritoneal macrophage, in Mus musculus, 96 h) [µM] | IC50 [5] [µM] | IC50 ([2]; Trypanosoma brucei, 48 h) [µM] | Number of parasites in the liver per gram ([6]; n=8) | Number of parasites in the spleen per gram ([6]; n=8) | % reduction in the number of parasites in the liver ([6]; versus without treatment) [%] | % reduction in the number of parasites in the spleen ([6]; versus without treatment) [%] | Cytotoxicity on macrophages (macrophages; BALB/c, mouse) [µg/mL] | IC50 ([4]; Human immunodeficiency virus 1, 72 h) [µM] | L. amazonensis IC100 ([3]; listed as 26) [µg/mL] | L. donovani IC50 [7] [µg/mL] | L. infantum (IPZ229/1/89) IC50 [8] [µg/mL]
1 | CCCCCc1ccc2ccccc2n1 [Quinoline 20] | 19 | 9 | 13 | >50 | >100 | 2 | – | – | – | – | – | – | – | – | – | – | – | –
2 | O=CC=Cc1ccc2ccccc2n1 [Quinoline 9, 3-(2-quinolyl)propenal] | – | – | – | 0.781 | – | – | 5 | 2 | 19 | 3.8 × 10^6 a, e per gram | 2.2 × 10^6 b per gram | −91.6 | −47.6 | 1.56 | 0.6 | – | – | –
3 | C[Si](C)(C)C#Cc1ccc2ccccc2n1 [Quinoline 26] | 8 | 3 | – | – | 1.56 | 0.9 | – | – | – | – | – | – | – | – | – | 12.5 | 1.7 | 10.9
